Experiments:
[1] = tested on: Trypanosoma brucei rhodesiense; test: Antitrypanosomal activity against Trypanosoma brucei rhodesiense STIB900 assessed as parasite growth inhibition measured after 72 hrs by alamar blue dye based spectrofluorimetric analysis; assay type: functional, organism-based; details: STIB900, 72 h
Vero = test: Cytotoxicity against African green monkey Vero cells assessed as reduction in cell viability measured after 72 hrs by SRB assay; assay type: cell-based; details: Chlorocebus sabaeus
[2] = Selectivity index, ratio of IC50 for cytotoxicity against African green monkey Vero cells to IC50 for antitrypanosomal activity against Trypanosoma brucei rhodesiense STI B900; assay type: toxicity, cell-based; details: read-out: Ratio IC50

CC1(C)N=C(N)N=C(N)N1OCCCOc1cc(Cl)c(Cl)cc1Cl
IC50 [1]: 0.25 µM
IC50 (Vero): > 10 µM
selectivity ratio [2]: > 40

CN1Cc2ccc(OCc3ccccc3)cc2[C@@H](OCc2ccccc2)C1
IC50 [1]: 2.8 µM
IC50 (Vero): 23.5 µM
selectivity ratio [2]: 8.4

OC1CCCc2ccc(OCc3ccccc3)cc21 (stereo unspecified)
IC50 [1]: 65.9 µM
IC50 (Vero): 39 µM
selectivity ratio [2]: 0.6

Oc1cccc2c1CNCC2O (stereo unspecified)
IC50 [1]: > 100 µM
IC50 (Vero): > 100 µM

CN1Cc2ccc(OCCCn3ccnc3[N+](=O)[O-])cc2[C@@H](O)C1
IC50 [1]: 21.7 µM
IC50 (Vero): > 50 µM
selectivity ratio [2]: > 2.3

CN1Cc2ccc(OCc3ccc(Oc4ccc(F)cc4)cc3)cc2[C@@H](O)C1
IC50 [1]: 2.7 µM
IC50 (Vero): 5.6 µM
selectivity ratio [2]: 2.1

CN1CCc2cc(OCc3ccc(-c4ccccc4)cc3)ccc2C1
IC50 [1]: 2.3 µM
IC50 (Vero): 16.5 µM
selectivity ratio [2]: 7.2

COc1cccc2c1CN(C)C[C@@H]2O
IC50 [1]: > 100 µM
IC50 (Vero): > 100 µM

CCN1Cc2ccc(O)cc2C(O)C1 (stereo unspecified)
IC50 [1]: > 100 µM
IC50 (Vero): > 100 µM

CN1CCc2cc(OCc3ccccc3)ccc2C1
IC50 [1]: 4.4 µM
IC50 (Vero): > 100 µM
selectivity ratio [2]: > 22.7

CN1CCc2cc(Oc3ccccc3)ccc2C1
IC50 [1]: 19.8 µM
IC50 (Vero): > 100 µM
selectivity ratio [2]: > 5.7

COc1ccc(COc2ccc3c(c2)[C@@H](O)CN(C)C3)cc1
IC50 [1]: 17.5 µM
IC50 (Vero): > 50 µM
selectivity ratio [2]: > 2.9

CN1Cc2c(OCc3ccc(-c4ccccc4)cc3)cccc2[C@@H](O)C1
IC50 [1]: 3.1 µM
IC50 (Vero): > 50 µM
selectivity ratio [2]: > 16

OC1CN(Cc2ccccc2)Cc2ccc(OCc3ccc(-c4ccccc4)cc3)cc21 (stereo unspecified)
IC50 [1]: 2.7 µM
IC50 (Vero): 14.8 µM
selectivity ratio [2]: 5.5

CN1Cc2ccc(O)cc2[C@@H](OCc2ccc(-c3ccccc3)cc2)C1
IC50 [1]: 6.4 µM
IC50 (Vero): > 50 µM
selectivity ratio [2]: > 7.8

OC1CNCc2c(OCc3ccc(-c4ccccc4)cc3)cccc21 (stereo unspecified)
IC50 [1]: 2.7 µM
IC50 (Vero): 21.6 µM
selectivity ratio [2]: 8

CN1Cc2ccc(OCc3ccccc3)cc2[C@@H](O)C1
IC50 [1]: 25.6 µM
IC50 (Vero): > 100 µM
selectivity ratio [2]: > 3.9

CN1Cc2ccc(OCc3ccc(Oc4ccccc4)cc3)cc2[C@@H](O)C1
IC50 [1]: 2.7 µM
IC50 (Vero): 3.4 µM
selectivity ratio [2]: 1.3

Cc1ccccc1COc1ccc2c(c1)[C@@H](O)CN(C)C2
IC50 [1]: 20.7 µM
IC50 (Vero): > 100 µM
selectivity ratio [2]: > 4.8

CN1Cc2ccc(O)cc2[C@@H](OCCC2CCCCC2)C1
IC50 [1]: 19.1 µM
IC50 (Vero): > 50 µM
selectivity ratio [2]: > 2.6

Oc1ccc2c(c1)C(O)CNC2 (stereo unspecified)
IC50 [1]: > 100 µM
IC50 (Vero): > 100 µM

CN1Cc2ccc(OCc3ccc(Br)cc3)cc2[C@@H](O)C1
IC50 [1]: 2.5 µM
IC50 (Vero): 37 µM
selectivity ratio [2]: 14.8

CN1Cc2ccc(OCCC3CCCCC3)cc2[C@@H](O)C1
IC50 [1]: 2.5 µM
IC50 (Vero): > 50 µM
selectivity ratio [2]: > 20

COc1cccc(-c2cccc(COc3ccc4c(c3)[C@@H](O)CN(C)C4)c2)c1
IC50 [1]: 2.9 µM
IC50 (Vero): 24.3 µM
selectivity ratio [2]: 8.4

CN1CCc2cc(-c3ccc(-c4ccccc4)cc3)ccc2C1
IC50 [1]: 0.27 µM
IC50 (Vero): 15.6 µM
selectivity ratio [2]: 57.8

CN(C)CCOc1ccc2c(c1)[C@@H](O)CN(C)C2
IC50 [1]: > 50 µM
IC50 (Vero): > 50 µM

OC1CN(Cc2ccccc2)Cc2ccc(OCc3ccccc3)cc21 (stereo unspecified)
IC50 [1]: 8.4 µM
IC50 (Vero): 31.8 µM
selectivity ratio [2]: 3.8

CN1CCc2cc(OCCC3CCCCC3)ccc2C1
IC50 [1]: 2.9 µM
IC50 (Vero): 25 µM
selectivity ratio [2]: 8.6

OC1CNCc2ccc(OCc3cccc(Br)c3)cc21 (stereo unspecified)
IC50 [1]: 3.33 µM
IC50 (Vero): 54.3 µM
selectivity ratio [2]: 16.3

CN1Cc2ccc(OCc3ccc(-c4ccc5ccccc5c4)cc3)cc2[C@@H](O)C1
IC50 [1]: 0.24 µM
IC50 (Vero): 0.31 µM
selectivity ratio [2]: 1.3

CN1Cc2ccc(OCc3ccc([N+](=O)[O-])cc3)cc2[C@@H](O)C1
IC50 [1]: 16.9 µM
IC50 (Vero): > 50 µM
selectivity ratio [2]: > 3

CN1Cc2ccc(OCc3cccc(Br)c3)cc2[C@@H](O)C1
IC50 [1]: 2.2 µM
IC50 (Vero): 60.3 µM
selectivity ratio [2]: 27.4

CN1Cc2ccc(OCCCN3CCOCC3)cc2[C@@H](O)C1
IC50 [1]: 27.6 µM
IC50 (Vero): > 50 µM
selectivity ratio [2]: > 1.8

CCCCCCCCCCCCOc1ccc2c(c1)[C@@H](O)CN(C)C2
IC50 [1]: 2.4 µM
IC50 (Vero): 18.3 µM
selectivity ratio [2]: 7.6

CN1Cc2ccc(O)cc2[C@@H](OCc2ccccc2)C1
IC50 [1]: > 50 µM
IC50 (Vero): > 50 µM

OC1CNCc2c(OCc3ccccc3)cccc21 (stereo unspecified)
IC50 [1]: 26.2 µM
IC50 (Vero): > 50 µM
selectivity ratio [2]: > 1.9

CN1Cc2ccc(OCCCc3ccccc3)cc2[C@@H](O)C1
IC50 [1]: 18.7 µM
IC50 (Vero): > 50 µM
selectivity ratio [2]: > 2.7

CN1Cc2c(OCc3ccccc3)cccc2[C@@H](O)C1
IC50 [1]: 69.8 µM
IC50 (Vero): > 100 µM
selectivity ratio [2]: > 1.4

OC1CNCc2ccc(OCc3ccccc3)cc21 (stereo unspecified)
IC50 [1]: 17.4 µM
IC50 (Vero): > 50 µM
selectivity ratio [2]: > 2.9

CN1Cc2ccc(OCCc3ccccc3)cc2[C@@H](O)C1
IC50 [1]: 17.9 µM
IC50 (Vero): > 50 µM
selectivity ratio [2]: > 2.8

CN1Cc2ccc(OCC3CCNCC3)cc2[C@@H](O)C1
IC50 [1]: > 100 µM
IC50 (Vero): > 100 µM

CN1Cc2ccc(OCCCn3cnc([N+](=O)[O-])c3)cc2[C@@H](O)C1
IC50 [1]: > 50 µM
IC50 (Vero): > 50 µM

CN1Cc2ccc(OCCCN3CCNCC3)cc2[C@@H](O)C1
IC50 [1]: > 100 µM
IC50 (Vero): > 100 µM

CCCN1Cc2ccc(O)cc2C(O)C1 (stereo unspecified)
IC50 [1]: > 100 µM
IC50 (Vero): > 100 µM

CN1Cc2c(O)cccc2[C@@H](O)C1
IC50 [1]: > 100 µM
IC50 (Vero): > 100 µM

OC1CNCc2ccc(OCCC3CCCCC3)cc21 (stereo unspecified)
IC50 [1]: 2.5 µM
IC50 (Vero): > 50 µM
selectivity ratio [2]: > 20

CN1Cc2ccc(OCc3cccc(-c4ccc(Cl)cc4)c3)cc2[C@@H](O)C1
IC50 [1]: 2.9 µM
IC50 (Vero): 27.3 µM
selectivity ratio [2]: 9.4

CN1Cc2ccc(OCc3ccc(-c4cccc(Cl)c4)cc3)cc2[C@@H](O)C1
IC50 [1]: 2.8 µM
IC50 (Vero): 25.5 µM
selectivity ratio [2]: 9.1

CCCCCCCCCCCC1c2ccc(O)cc2[C@@H](O)CN1C (stereo partly specified)
IC50 [1]: 0.39 µM

OC1CCCc2ccc(OCc3ccc(-c4ccccc4)cc3)cc21 (stereo unspecified)
IC50 [1]: > 100 µM
IC50 (Vero): > 100 µM

CN1CCc2cc(OCCCN3CCOCC3)ccc2C1
IC50 [1]: 25.9 µM
IC50 (Vero): > 50 µM
selectivity ratio [2]: > 1.9

CN1Cc2ccc(OC(c3ccccc3)(c3ccccc3)c3ccccc3)cc2[C@@H](O)C1
IC50 [1]: 20.8 µM
IC50 (Vero): 87.9 µM
selectivity ratio [2]: 4.2

CN1CCc2cc(-c3ccc4ccccc4c3)ccc2C1
IC50 [1]: 2.7 µM
IC50 (Vero): 24.1 µM
selectivity ratio [2]: 8.9

COc1cccc(-c2ccc(COc3ccc4c(c3)[C@@H](O)CN(C)C4)cc2)c1
IC50 [1]: 2.8 µM
IC50 (Vero): 10.8 µM
selectivity ratio [2]: 3.9

OC1CNCc2ccc(OCc3ccc(-c4ccccc4)cc3)cc21 (stereo unspecified)
IC50 [1]: 0.25 µM
IC50 (Vero): 20.8 µM
selectivity ratio [2]: 83.2

COCCOCOc1ccc2c(c1)[C@@H](O)CN(C)C2
IC50 [1]: > 50 µM
IC50 (Vero): > 50 µM

COc1ccc2c(c1)[C@@H](O)CN(C)C2
IC50 [1]: > 100 µM
IC50 (Vero): > 100 µM

Oc1ccc2c(c1)C(O)CCC2 (stereo unspecified)
IC50 [1]: > 100 µM
IC50 (Vero): > 100 µM

Cc1cccc(COc2ccc3c(c2)[C@@H](O)CN(C)C3)c1
IC50 [1]: 20.3 µM
IC50 (Vero): > 50 µM
selectivity ratio [2]: > 2.5

Oc1ccc2c(c1)C(O)CN(Cc1ccccc1)C2 (stereo unspecified)
IC50 [1]: 70.5 µM
IC50 (Vero): > 100 µM
selectivity ratio [2]: > 1.4

Cc1ccccc1COc1ccc2c(c1)C(O)CNC2 (stereo unspecified)
IC50 [1]: 3.26 µM
IC50 (Vero): > 25 µM
selectivity ratio [2]: > 7.7

CN1Cc2ccc(O[Si](c3ccccc3)(c3ccccc3)C(C)(C)C)cc2[C@@H](O)C1
IC50 [1]: 2.8 µM
IC50 (Vero): 19.1 µM
selectivity ratio [2]: 6.8

CN1Cc2ccc(OCc3cccnc3)cc2[C@@H](O)C1
IC50 [1]: > 50 µM
IC50 (Vero): > 50 µM

CN1Cc2ccc(OCc3ccc(-c4ccccc4)cc3)cc2[C@@H](O)C1
IC50 [1]: 2.9 µM
IC50 (Vero): 23 µM
selectivity ratio [2]: 7.9

CN1Cc2ccc(OCC3CCCCC3)cc2[C@@H](O)C1
IC50 [1]: 2.8 µM
IC50 (Vero): 65.6 µM
selectivity ratio [2]: 23.4

Oc1ccc2c(c1)C(O)CN(Cc1ccc(-c3ccccc3)cc1)C2 (stereo unspecified)
IC50 [1]: 5.4 µM
IC50 (Vero): > 50 µM
selectivity ratio [2]: > 9.3

CN1Cc2ccc(OCc3ccc(-c4ccccc4)cc3)cc2[C@@H](OCc2ccc(-c3ccccc3)cc2)C1
IC50 [1]: 2.8 µM
IC50 (Vero): > 10 µM
selectivity ratio [2]: > 3.6

CN1CCc2cc(-c3ccccc3)ccc2C1
IC50 [1]: 3 µM
IC50 (Vero): > 50 µM
selectivity ratio [2]: > 16.7

CN1Cc2ccc(OCCOc3ccccc3)cc2[C@@H](O)C1
IC50 [1]: 17.9 µM
IC50 (Vero): > 100 µM
selectivity ratio [2]: > 5.6

CN1CCc2cc(Oc3ccc(-c4ccccc4)cc3)ccc2C1
IC50 [1]: 2.7 µM
IC50 (Vero): 22.3 µM
selectivity ratio [2]: 8.3

CN1CCc2cc(O)ccc2C1
IC50 [1]: > 100 µM
IC50 (Vero): > 100 µM

CN1Cc2ccc(OCc3ccc(-c4ccc(Cl)cc4)cc3)cc2[C@@H](O)C1
IC50 [1]: 0.28 µM
IC50 (Vero): 21.7 µM
selectivity ratio [2]: 77.5

CN1Cc2c(OCCC3CCCCC3)cccc2[C@@H](O)C1
IC50 [1]: 13 µM
IC50 (Vero): 62.7 µM
selectivity ratio [2]: 4.8

CN1Cc2ccc(OCCC3CCCCC3)cc2[C@@H](OCCC2CCCCC2)C1
IC50 [1]: 2.3 µM
IC50 (Vero): 23.6 µM
selectivity ratio [2]: 10.3

CN1Cc2ccc(OCc3ccc(-c4ccc(-c5ccccc5)cc4)cc3)cc2[C@@H](O)C1
IC50 [1]: 0.28 µM
IC50 (Vero): 0.28 µM
selectivity ratio [2]: 1

CN1Cc2ccc(OCc3ccc(-c4ccc(F)cc4)cc3)cc2[C@@H](O)C1
IC50 [1]: 1.4 µM
IC50 (Vero): 33.8 µM
selectivity ratio [2]: 24.1

Cc1c2ccncc2c(C)c2c1[nH]c1ccccc12 [ELLIPTECINE]
IC50 (Vero): 2.4 µM

N=C(N)c1ccc(OCCCCCOc2ccc(C(=N)N)cc2)cc1 [PENTAMIDINE]
IC50 [1]: 0.00707 µM

From ChEMBL document CHEMBL5032529, “Synthesis and evaluation of tetrahydroisoquinoline derivatives against Trypanosoma brucei rhodesiense” (Eur J Med Chem, 2021)
